Reference: PubChem BioAssay (NCI)
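Where inhibition never reached the appropriate level, the endpoint shown equals the highest concentration tested. Otherwise, values were interpolated linearly from a five-concentration, 48-hour dose response in 96-well plates. TGI denotes the concentration required for complete inhibition of growth.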

Key:
Experiment in all cases: inhibition of tumour cell growth, NCI panel, 48 h
786-0 renal = system: 786-0 renal
A498 renal = system: A498 renal
A549 NSCLC = system: A549 NSCLC
ACHN renal = system: ACHN renal
BT-549 breast = system: BT-549 breast
CAKI-1 renal = system: CAKI-1 renal
CCRF-CEM leukemia = system: CCRF-CEM leukemia
COLO 205 colon = system: COLO 205 colon
DU-145 prostate = system: DU-145 prostate
EKVX NSCLC = system: EKVX NSCLC
HCC-2998 colon = system: HCC-2998 colon
HCT-116 colon = system: HCT-116 colon
HCT-15 colon = system: HCT-15 colon
HL-60(TB) leukemia = system: HL-60(TB) leukemia
HOP-62 NSCLC = system: HOP-62 NSCLC
HOP-92 NSCLC = system: HOP-92 NSCLC
HS 578T breast = system: HS 578T breast
HT29 colon = system: HT29 colon
IGROV1 ovarian = system: IGROV1 ovarian
K-562 leukemia = system: K-562 leukemia
KM12 colon = system: KM12 colon
LOX IMVI melanoma = system: LOX IMVI melanoma
M14 melanoma = system: M14 melanoma
MALME-3M melanoma = system: MALME-3M melanoma
MCF7 breast = system: MCF7 breast
MDA-MB-231 breast = system: MDA-MB-231 breast
MDA-MB-435 = system: MDA-MB-435
MDA-N = system: MDA-N
MOLT-4 leukemia = system: MOLT-4 leukemia
NCI-H226 lung = system: NCI-H226 lung
NCI-H23 lung = system: NCI-H23 lung
NCI-H460 lung = system: NCI-H460 lung
NCI-H522 lung = system: NCI-H522 lung
NCI/ADR-RES ovarian = system: NCI/ADR-RES ovarian
OVCAR-3 ovarian = system: OVCAR-3 ovarian
OVCAR-4 ovarian = system: OVCAR-4 ovarian
OVCAR-5 ovarian = system: OVCAR-5 ovarian
OVCAR-8 ovarian = system: OVCAR-8 ovarian
PC-3 prostate = system: PC-3 prostate
RPMI-8226 leukemia = system: RPMI-8226 leukemia
RXF 393 renal = system: RXF 393 renal
SF-268 CNS = system: SF-268 CNS
SF-295 CNS = system: SF-295 CNS
SF-539 CNS = system: SF-539 CNS
SK-MEL-2 melanoma = system: SK-MEL-2 melanoma
SK-MEL-28 melanoma = system: SK-MEL-28 melanoma
SK-MEL-5 melanoma = system: SK-MEL-5 melanoma
SK-OV-3 ovarian = system: SK-OV-3 ovarian
SN12C renal = system: SN12C renal
SNB-19 CNS = system: SNB-19 CNS
SNB-75 CNS = system: SNB-75 CNS
SR leukemia = system: SR leukemia
SW-620 colon = system: SW-620 colon
T-47D breast = system: T-47D breast
TK-10 renal = system: TK-10 renal
U251 CNS = system: U251 CNS
UACC-257 melanoma = system: UACC-257 melanoma
UACC-62 melanoma = system: UACC-62 melanoma
UO-31 renal = system: UO-31 renal

NC1=Nc2cc(C(F)(F)F)ccc2Sc2nc3ccccc3n21
TGI (786-0 renal): > 28.6 µM | TGI (A498 renal): > 100 µM | TGI (A549 NSCLC): > 100 µM | TGI (ACHN renal): > 100 µM | TGI (BT-549 breast): > 100 µM | TGI (CAKI-1 renal): > 100 µM | TGI (CCRF-CEM leukemia): > 24.8 µM | TGI (COLO 205 colon): > 100 µM | TGI (DU-145 prostate): > 100 µM | TGI (EKVX NSCLC): > 100 µM | TGI (HCC-2998 colon): > 100 µM | TGI (HCT-116 colon): > 100 µM | TGI (HCT-15 colon): > 100 µM | TGI (HL-60(TB) leukemia): > 26 µM | TGI (HOP-62 NSCLC): > 100 µM | TGI (HOP-92 NSCLC): 80.4 µM | TGI (HS 578T breast): > 100 µM | TGI (HT29 colon): > 100 µM | TGI (IGROV1 ovarian): > 100 µM | TGI (K-562 leukemia): > 100 µM | TGI (KM12 colon): > 100 µM | TGI (LOX IMVI melanoma): > 100 µM | TGI (M14 melanoma): > 43.2 µM | TGI (MALME-3M melanoma): > 100 µM | TGI (MCF7 breast): > 100 µM | TGI (MDA-MB-231 breast): > 100 µM | TGI (MDA-MB-435): > 100 µM | TGI (MDA-N): > 100 µM | TGI (MOLT-4 leukemia): > 100 µM | TGI (NCI-H226 lung): > 87.5 µM | TGI (NCI-H23 lung): > 100 µM | TGI (NCI-H460 lung): > 100 µM | TGI (NCI-H522 lung): > 71.1 µM | TGI (NCI/ADR-RES ovarian): > 100 µM | TGI (OVCAR-3 ovarian): > 100 µM | TGI (OVCAR-4 ovarian): > 100 µM | TGI (OVCAR-5 ovarian): > 100 µM | TGI (OVCAR-8 ovarian): > 100 µM | TGI (PC-3 prostate): > 100 µM | TGI (RPMI-8226 leukemia): > 100 µM | TGI (RXF 393 renal): > 100 µM | TGI (SF-268 CNS): > 100 µM | TGI (SF-295 CNS): > 100 µM | TGI (SF-539 CNS): > 100 µM | TGI (SK-MEL-2 melanoma): > 100 µM | TGI (SK-MEL-28 melanoma): > 100 µM | TGI (SK-MEL-5 melanoma): > 100 µM | TGI (SK-OV-3 ovarian): > 100 µM | TGI (SN12C renal): > 100 µM | TGI (SNB-19 CNS): > 100 µM | TGI (SNB-75 CNS): 71.2 µM | TGI (SR leukemia): > 25.4 µM | TGI (SW-620 colon): > 100 µM | TGI (T-47D breast): > 100 µM | TGI (TK-10 renal): > 100 µM | TGI (U251 CNS): > 100 µM | TGI (UACC-257 melanoma): > 100 µM | TGI (UACC-62 melanoma): > 100 µM | TGI (UO-31 renal): > 100 µM
